# Read-outs that look alike come from different tables or passages of the source.
# Assays:
# [1] = target: T1, isomaltase (Rattus norvegicus, UniProt P23739); assay: Inhibition of rat intestinal isomaltase; type: biochemical; details: rat intestine; read-out: IC50 α-glucosidase isomaltase
# T1 construct: from tissue; host or cells: rat small intestine brush border membranes
# From the text: (§1) The α-glucosidases of rice and of yeast, as well as the β-glucosidases of sweet almond and Caldocellum saccharolyticum are obtained from Sigma Chemical Co. ‘Brush border’ membranes prepared from rat small intestine according to Kessler's method (Kessler, M.; Acuto, O.; Strelli, C.; Murer, H.; Semenza, G. A. Biochem. Biophys. Acta 1978, 506, 136) were used as a source of intestinal maltase, sucrase and isomaltase. The activities of rice α-glucosidase as well as of the intestinal glucosidases were determined using an appropriate disaccharide as substrate. The D-glucose thus released was assayed by colorimetry using the Wako glucose B-test (Wako Pure Chemical Ind., Japan). The activities on the other glycosidases were determined using the appropriate p-nitrophenyl glycoside as a substrate with the optimum pH of each enzyme. The reaction is stopped by adding 400 mM Na2CO3. The p-nitrophenol thus released was assayed by spectrophotometry at 400 nm. For the β-glucocerebrosidase, the technique used is that described in Kato, A.; Kato, N.; Kano, E.; Adachi, I.; Ikeda, K.; Yu, L.; Okamoto, T.; Banba, Y.; Ouchi, H.; Takahata, H.; Asano, N. Biological properties of D- and L-1-deoxyazasugars. J. Med. Chem. 2005, 48, 2036-2044.
# [2] = target: T2, α-Glucosidase (Homo sapiens, UniProt P10253); assay: α-Glucosidase activity in Gaucher fibroblasts; type: cell-based
# T2 construct: endogenous in cells; host or cells: fibroblasts of Gaucher patients (type 1, 2, 3)
# Method: (§2) The tests were carried out under the conditions described in: Sawkar, A. R.; Cheng, W.-C.; Beutler, E.; Wong, C.-H.; Balch, W. E.; Kelly, J. W. Chemical chaperones increase the cellular activity of N370S beta-glucosidase: a therapeutic strategy for Gaucher's disease. Proc. Natl. Acad. Sci. U.S.A. 2002, 99, 15428-15433.
# [3] = target: T3, rice α-glucosidase (Oryza sativa subsp. japonica, UniProt Q653V7); assay: Inhibition of rice α-glucosidase (disaccharide substrate, glucose colorimetry); type: biochemical; details: rice enzyme
# T3 construct: purchased Sigma Chemical Co
# T3 sequence (Q653V7 34-885): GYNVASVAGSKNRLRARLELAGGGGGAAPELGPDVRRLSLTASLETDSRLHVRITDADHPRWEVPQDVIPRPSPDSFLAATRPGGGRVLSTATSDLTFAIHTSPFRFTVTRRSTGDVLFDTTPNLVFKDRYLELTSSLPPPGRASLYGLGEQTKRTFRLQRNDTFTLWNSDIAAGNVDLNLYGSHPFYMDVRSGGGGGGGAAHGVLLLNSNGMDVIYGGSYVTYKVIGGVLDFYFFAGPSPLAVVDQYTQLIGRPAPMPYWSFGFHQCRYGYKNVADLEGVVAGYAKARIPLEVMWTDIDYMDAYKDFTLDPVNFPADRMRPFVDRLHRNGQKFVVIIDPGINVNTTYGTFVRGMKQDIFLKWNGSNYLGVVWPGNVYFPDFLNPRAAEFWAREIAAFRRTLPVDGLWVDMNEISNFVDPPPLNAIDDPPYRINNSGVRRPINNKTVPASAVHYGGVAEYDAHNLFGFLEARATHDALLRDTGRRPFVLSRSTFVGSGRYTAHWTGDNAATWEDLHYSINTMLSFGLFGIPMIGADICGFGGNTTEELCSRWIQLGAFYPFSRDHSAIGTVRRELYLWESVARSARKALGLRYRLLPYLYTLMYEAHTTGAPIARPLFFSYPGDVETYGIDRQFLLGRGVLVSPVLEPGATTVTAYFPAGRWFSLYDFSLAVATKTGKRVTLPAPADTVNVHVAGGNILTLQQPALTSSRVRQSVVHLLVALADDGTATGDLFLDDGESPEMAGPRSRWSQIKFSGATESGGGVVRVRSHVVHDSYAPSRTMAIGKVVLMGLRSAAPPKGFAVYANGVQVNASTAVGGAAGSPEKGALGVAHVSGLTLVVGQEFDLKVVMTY
# From the text: as §1
# [4] = target: T4, sucrase (Rattus norvegicus, UniProt P23739); assay: Inhibition of rat intestinal sucrase; type: biochemical; details: rat intestine; read-out: IC50 α-glucosidase sucrase
# T4 construct: from tissue; host or cells: rat small intestine brush border membranes
# T4 sequence (P23739 1-1013 limits assumed): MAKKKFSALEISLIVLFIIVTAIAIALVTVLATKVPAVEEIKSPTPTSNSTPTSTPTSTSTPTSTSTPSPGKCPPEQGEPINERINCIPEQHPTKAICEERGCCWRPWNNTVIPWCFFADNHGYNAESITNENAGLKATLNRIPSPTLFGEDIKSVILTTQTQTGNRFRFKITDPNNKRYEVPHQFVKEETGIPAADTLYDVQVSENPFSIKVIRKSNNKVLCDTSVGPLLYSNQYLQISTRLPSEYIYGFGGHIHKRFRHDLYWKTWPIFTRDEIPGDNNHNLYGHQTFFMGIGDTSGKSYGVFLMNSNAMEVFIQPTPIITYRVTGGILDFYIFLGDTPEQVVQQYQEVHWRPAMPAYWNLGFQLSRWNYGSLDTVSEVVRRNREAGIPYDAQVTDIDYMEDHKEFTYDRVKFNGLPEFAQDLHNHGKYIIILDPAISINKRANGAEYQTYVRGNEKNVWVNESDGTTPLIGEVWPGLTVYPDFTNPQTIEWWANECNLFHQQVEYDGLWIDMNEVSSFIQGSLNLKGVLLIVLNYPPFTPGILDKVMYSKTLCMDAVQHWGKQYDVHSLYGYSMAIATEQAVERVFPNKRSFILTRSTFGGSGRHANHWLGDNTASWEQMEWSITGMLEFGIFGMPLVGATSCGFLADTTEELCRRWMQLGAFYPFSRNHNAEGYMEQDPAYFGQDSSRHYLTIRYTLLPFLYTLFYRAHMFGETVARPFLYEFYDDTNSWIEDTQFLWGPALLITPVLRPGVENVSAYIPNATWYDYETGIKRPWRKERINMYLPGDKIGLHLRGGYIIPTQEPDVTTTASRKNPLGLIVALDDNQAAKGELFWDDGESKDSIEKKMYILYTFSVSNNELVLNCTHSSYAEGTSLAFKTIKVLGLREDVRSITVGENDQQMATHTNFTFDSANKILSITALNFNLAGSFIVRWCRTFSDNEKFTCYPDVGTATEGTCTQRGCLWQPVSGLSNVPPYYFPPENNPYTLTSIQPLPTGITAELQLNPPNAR
# T4 sequence (P23739 1014-1841 limits assumed): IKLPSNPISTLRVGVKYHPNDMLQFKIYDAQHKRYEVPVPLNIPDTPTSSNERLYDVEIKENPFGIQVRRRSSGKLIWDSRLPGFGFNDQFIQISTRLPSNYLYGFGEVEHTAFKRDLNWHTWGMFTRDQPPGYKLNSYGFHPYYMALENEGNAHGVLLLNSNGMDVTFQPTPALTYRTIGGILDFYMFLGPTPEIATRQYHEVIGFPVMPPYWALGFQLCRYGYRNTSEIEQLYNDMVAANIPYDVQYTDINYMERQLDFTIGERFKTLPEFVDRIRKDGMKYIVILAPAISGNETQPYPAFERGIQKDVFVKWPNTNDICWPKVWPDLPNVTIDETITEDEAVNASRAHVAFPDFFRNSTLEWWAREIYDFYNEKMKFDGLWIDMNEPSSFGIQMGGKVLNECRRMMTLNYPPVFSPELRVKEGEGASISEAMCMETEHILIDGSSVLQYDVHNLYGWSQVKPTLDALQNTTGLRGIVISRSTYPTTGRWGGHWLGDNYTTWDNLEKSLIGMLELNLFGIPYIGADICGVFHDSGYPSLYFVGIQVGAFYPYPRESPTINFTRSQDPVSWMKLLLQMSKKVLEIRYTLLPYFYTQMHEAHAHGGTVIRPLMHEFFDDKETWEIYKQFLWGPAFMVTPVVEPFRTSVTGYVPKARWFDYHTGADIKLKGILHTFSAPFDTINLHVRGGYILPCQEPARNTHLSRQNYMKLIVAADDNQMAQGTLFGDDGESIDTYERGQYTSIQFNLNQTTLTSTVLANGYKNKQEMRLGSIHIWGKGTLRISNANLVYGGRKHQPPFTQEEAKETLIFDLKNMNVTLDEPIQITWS
# From the text: as §1
# [5] = target: T5, α-Mannosidase (Homo sapiens, UniProt O00754); assay: α-Mannosidase activity in Gaucher fibroblasts; type: cell-based
# T5 construct: endogenous in cells; host or cells: fibroblasts of Gaucher patients (type 1, 2, 3)
# T5 sequence (O00754 50-1011): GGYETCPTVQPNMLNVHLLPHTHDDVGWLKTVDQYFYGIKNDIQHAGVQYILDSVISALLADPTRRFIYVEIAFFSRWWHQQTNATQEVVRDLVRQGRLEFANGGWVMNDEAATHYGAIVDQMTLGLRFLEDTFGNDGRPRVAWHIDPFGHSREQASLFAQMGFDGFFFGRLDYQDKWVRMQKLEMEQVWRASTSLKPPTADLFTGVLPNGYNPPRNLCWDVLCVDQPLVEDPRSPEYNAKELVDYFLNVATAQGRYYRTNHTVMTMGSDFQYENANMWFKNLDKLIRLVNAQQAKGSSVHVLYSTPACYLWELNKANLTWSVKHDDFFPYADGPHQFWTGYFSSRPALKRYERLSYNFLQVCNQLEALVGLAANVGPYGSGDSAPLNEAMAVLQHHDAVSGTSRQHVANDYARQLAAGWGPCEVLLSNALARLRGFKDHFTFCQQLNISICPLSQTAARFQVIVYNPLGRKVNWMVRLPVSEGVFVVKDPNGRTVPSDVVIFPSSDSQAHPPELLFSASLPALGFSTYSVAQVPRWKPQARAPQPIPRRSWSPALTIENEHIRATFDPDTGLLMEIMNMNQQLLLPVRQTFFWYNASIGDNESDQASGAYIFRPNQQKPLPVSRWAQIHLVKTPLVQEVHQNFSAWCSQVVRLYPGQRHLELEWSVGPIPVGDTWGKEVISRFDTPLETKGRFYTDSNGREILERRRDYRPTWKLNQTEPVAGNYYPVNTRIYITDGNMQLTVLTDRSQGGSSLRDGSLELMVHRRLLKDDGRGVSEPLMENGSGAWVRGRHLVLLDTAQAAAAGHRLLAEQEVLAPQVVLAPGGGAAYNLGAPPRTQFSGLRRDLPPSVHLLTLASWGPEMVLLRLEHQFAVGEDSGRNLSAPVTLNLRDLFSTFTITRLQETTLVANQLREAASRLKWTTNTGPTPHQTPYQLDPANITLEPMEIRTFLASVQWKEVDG
# Method: as §2
# [6] = test system: other lysosomal glycosidases; assay: Effects on other lysosomal glycosidases in Gaucher fibroblasts; type: cell-based, human; details: for Effects on the activity of other glycosidases: Gaucher fibroblasts, Table 2
# [7] = target: T6, β-glucosidase Caldocellum saccharolyticum (Caldicellulosiruptor saccharolyticus, UniProt P10482); assay: Inhibition of Caldocellum saccharolyticum β-glucosidase; type: biochemical
# T6 construct: purchased Sigma Chemical Co
# T6 sequence (P10482 whole entry): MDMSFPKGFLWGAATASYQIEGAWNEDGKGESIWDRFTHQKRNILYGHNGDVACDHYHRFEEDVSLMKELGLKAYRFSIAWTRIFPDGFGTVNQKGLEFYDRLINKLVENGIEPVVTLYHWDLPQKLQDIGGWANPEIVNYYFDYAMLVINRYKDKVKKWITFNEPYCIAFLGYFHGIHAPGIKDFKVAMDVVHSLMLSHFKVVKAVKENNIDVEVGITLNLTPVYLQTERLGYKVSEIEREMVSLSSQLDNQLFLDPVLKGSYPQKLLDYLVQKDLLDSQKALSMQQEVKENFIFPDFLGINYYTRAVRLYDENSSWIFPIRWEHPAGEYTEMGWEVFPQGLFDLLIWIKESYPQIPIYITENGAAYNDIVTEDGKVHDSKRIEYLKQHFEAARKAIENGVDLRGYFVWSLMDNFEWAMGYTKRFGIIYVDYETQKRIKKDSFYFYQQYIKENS
# From the text: as §1
# [8] = target: maltase; assay: Inhibition of rat intestinal maltase; type: biochemical; details: rat intestine; read-out: IC50 α-glucosidase maltase
# From the text: as §1
# [9] = target: β-glucosidase sweet almond; assay: Inhibition of sweet almond β-glucosidase; type: biochemical
# From the text: as §1
# [10] = test system: β-glucocerebrosidase; assay: Intracellular β-glucocerebrosidase activity in type 3 Gaucher fibroblasts; type: cell-based, human; details: factor of residual β-glucocerebrosidase activity, 10 nM
# [11] = target: T7, human β-glucocerebrosidase (Homo sapiens, UniProt P04062); assay: Inhibition tests on human β-glucocerebrosidase; type: biochemical; details: for IC50: read-out: IC50 β-glucocérébrosidase
# T7 sequence (P04062 40-536): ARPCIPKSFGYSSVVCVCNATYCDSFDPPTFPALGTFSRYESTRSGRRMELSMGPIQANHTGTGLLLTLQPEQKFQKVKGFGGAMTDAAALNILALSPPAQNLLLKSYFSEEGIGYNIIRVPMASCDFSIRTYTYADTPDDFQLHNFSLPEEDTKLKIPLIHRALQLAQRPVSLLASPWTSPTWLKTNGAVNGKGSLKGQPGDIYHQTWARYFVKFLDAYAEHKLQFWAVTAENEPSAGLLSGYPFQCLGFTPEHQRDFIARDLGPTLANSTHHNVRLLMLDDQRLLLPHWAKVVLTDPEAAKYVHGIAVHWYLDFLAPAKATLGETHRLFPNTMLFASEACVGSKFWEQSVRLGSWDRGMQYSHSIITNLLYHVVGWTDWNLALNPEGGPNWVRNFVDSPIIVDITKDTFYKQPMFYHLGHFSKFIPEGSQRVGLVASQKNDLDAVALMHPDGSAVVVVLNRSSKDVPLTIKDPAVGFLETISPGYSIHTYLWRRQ
# [12] = test system: α-glucosidases; assay: Activity on the different α-glucosidases tested; type: biochemical
# From the text: as §1
# [13] = test system: β-glucocerebrosidase; assay: Intracellular β-glucocerebrosidase activity in type 1 Gaucher fibroblasts; type: cell-based, human; details: factor of residual β-glucocerebrosidase activity, 10 nM
# [14] = test system: human β-glucocerebrosidase; assay: Intracellular β-glucocerebrosidase activity in fibroblasts of Gaucher patients (type 1, 2 or 3); type: cell-based; details: fibroblasts type 1, 2 or 3; very low quantities
# [15] = type 2 Gaucher fibroblasts, 50 μM
# T1 sequence (P23739 1-1013 limits assumed): as the sequence (P23739 1-1013 limits assumed) above
# T1 sequence (P23739 1014-1841 limits assumed): as the sequence (P23739 1014-1841 limits assumed) above
smiles,measurement,setting,value
"CCCCCCCCCN1C[C@H](O)[C@@H](O)[C@H](O)[C@H]1CO [2′, N-nonyl-1-deoxynojirimycin, reference compound]",IC50,[1],0.23 µM
same,inhibition at 50 µM,"[2]; type 1 Gaucher fibroblasts, 50 μM",70%
same,α-Glucosidase inhibition,[2]; [15],significant inhibition
same,α-Glucosidase inhibition,[2]; type 3 Gaucher fibroblasts,significant inhibition
same,IC50,[3],0.08 µM
same,IC50,[4],0.66 µM
same,α-Mannosidase inhibition,[5]; type 1 Gaucher fibroblasts,slight inhibition
same,α-Mannosidase inhibition,[5]; [15],slight inhibition
same,α-Mannosidase inhibition,[5]; type 3 Gaucher fibroblasts,no inhibition
same,Effects on the activity of other glycosidases,[6],Marked effects
same,IC50,[7],80 µM
same,IC50,[8],1.3 µM
same,IC50,[9],150 µM
"CCCCCCCCC[C@H]1NC[C@@H](O)[C@H](O)[C@H]1O [Compound 1′a, α-1-C-nonyliminoxylitol]",IC50,[1],> 1000 µM
same,α-Glucosidases inhibition,[2]; type 1-3 Gaucher fibroblasts,no inhibition
same,IC50,[3],> 1000 µM
same,IC50,[4],> 1000 µM
same,Increase in the enzymatic activity (type 3 fibroblasts),[10],1.9
same,Increase in the enzymatic activity (type 3 fibroblasts),[10]; listed as drawing 105,×1.9 to 10 nM
same,IC50,[11]; human enzyme,0.0068 µM
same,times more active than N-nonyl-1-deoxynojirimycin 2′,[11]; human β-glucocerebrosidase,150 times
same,Ki,[11]; read-out: inhibition constant (Ki) human β-glucocerebrosidase,0.002 µM
same,α-Mannosidase inhibition,[5]; type 1-3 Gaucher fibroblasts,no inhibition
same,action on other lysosomal glycosidases,[6]; 10 nM,without inhibiting the action of other lysosomal glycosidases
same,Effects on the activity of other glycosidases,[6],No effect
same,activity on the different α-glucosidases tested,[12],no activity
same,IC50,[7],800 µM
same,Increase in the enzymatic activity (type 1 fibroblasts),[13],1.8
same,Increase in the enzymatic activity (type 1 fibroblasts),[13]; listed as drawing 105,×1.8 to 10 nM
same,residual enzymatic activity of human β-glucocerebrosidase,[14],double
same,IC50,[8],> 1000 µM
same,IC50,[9],1.9 µM
CCCCCCCCCCCC[C@H]1NC[C@@H](O)[C@H](O)[C@H]1O [Compound 1′b],Ki,"[11]; human enzyme, Table 1, read-out: value of Ki β-glucocérébrosidase (in brackets)",0.031 µM
same,IC50,[11]; human enzyme,0.012 µM

# Reference: patent publication US20080269285A1, “Novel Compounds of the Family of Iminosugars, Uses Thereof for Trewating Lysosomal Diseases, and Method for Preparing Same” (CENTRE NATIONAL DE LA RECHERCHE SCIENTIFIQUE, priority 2005, published 2008)
